ChEMBL document CHEMBL3885861, “Open TG-GATES”

Organism: Rattus norvegicus
Test: Open TG-GATES - Regimen: Daily Repeat
Format: toxicity, organism-based, Sprague-Dawley
Design: regimen Daily Repeat, gender Male, age 6 weeks
Conditions: in vivo, po, 100 mg/kg, […], route gavage, dose level Low; for KIDNEY_L / KIDNEY_R / KIDNEY_TOTAL: tissue Kidney; for LIVER: tissue Liver; for A/G / ALP / ALT / AST / BUN / CRE / Ca / Cl / DBIL / GLC / IP / K / LDH / Na / PL / RALB / TBIL / TC / TG / TP / gamma-GTP: tissue Plasma

Q: Which Lym (tissue Blood, time 28 day) does the source give for CC(=O)[C@@]1(O)CC[C@H]2[C@@H]3C=C(Cl)C4=CC(=O)CC[C@]4(C)[C@H]3CC[C@@]21C [CHLORMADINONE] here?
A: Its Lym is 84.8%.

Q: What about the MCH (tissue Blood, time 28 day) of the same compound?
A: The MCH was 19.2 pg.

Q: What about the MCHC (tissue Blood, time 28 day) of the same compound?
A: Its MCHC is 34.4%.

Q: And the MCV (tissue Blood, time 28 day)?
A: Its MCV is 55.7 fL.

Q: And the Mono (tissue Blood, time 28 day)?
A: Its Mono is 1.6%.

Q: What about the Neu (tissue Blood, time 28 day) of the same compound?
A: The Neu was 11.4%.

Q: What about the PT (tissue Blood, time 28 day) of the same compound?
A: Its PT is 14.9 s.

Q: What about the Plat (tissue Blood, time 28 day) of the same compound?
A: Its Plat is 95 x10_4/uL.

Q: And the RBC (tissue Blood, time 28 day)?
A: Its RBC is 809 x10_4/ul.

Q: What about the Ret (tissue Blood, time 28 day) of the same compound?
A: The Ret was 2.2%.

Q: And the WBC (tissue Blood, time 28 day)?
A: Its WBC is 106.1 x10_2/uL.

Q: What about the KIDNEY_L (time 7 day) of the same compound?
A: The KIDNEY_L was 1.1 g.

Q: And the KIDNEY_R (time 7 day)?
A: Its KIDNEY_R is 1.1 g.

Q: What about the KIDNEY_TOTAL (time 7 day) of the same compound?
A: Its KIDNEY_TOTAL is 2.2 g.

Q: And the KIDNEY_L (time 14 day)?
A: Its KIDNEY_L is 1.1 g.

Q: What about the KIDNEY_R (time 14 day) of the same compound?
A: Its KIDNEY_R is 1.1 g.

Q: What about the KIDNEY_TOTAL (time 14 day) of the same compound?
A: The KIDNEY_TOTAL was 2.3 g.

Q: And the KIDNEY_L (time 28 day)?
A: Its KIDNEY_L is 1.3 g.

Q: And the KIDNEY_R (time 28 day)?
A: Its KIDNEY_R is 1.3 g.

Q: And the KIDNEY_TOTAL (time 28 day)?
A: The KIDNEY_TOTAL was 2.5 g.

Q: What about the LIVER (time 7 day) of the same compound?
A: The LIVER was 11.1 g.

Q: And the LIVER (time 14 day)?
A: Its LIVER is 12 g.

Q: And the LIVER (time 28 day)?
A: The LIVER was 14.2 g.

Q: And the A/G (time 7 day)?
A: The A/G was 1.2.

Q: What about the ALP (time 7 day) of the same compound?
A: Its ALP is 1694.8 IU/L.

Q: What about the ALT (time 7 day) of the same compound?
A: The ALT was 46.4 IU/L.

Q: And the AST (time 7 day)?
A: The AST was 74.6 IU/L.

Q: And the BUN (time 7 day)?
A: Its BUN is 16.2 mg/dL.

Q: What about the CRE (time 7 day) of the same compound?
A: Its CRE is 0.2 mg/dL.

Q: And the Ca (time 7 day)?
A: The Ca was 10.7 mg/dL.

Q: And the Cl (time 7 day)?
A: The Cl was 106.8 meq/L.

Q: What about the DBIL (time 7 day) of the same compound?
A: Its DBIL is 0 mg/dL.

Q: What about the GLC (time 7 day) of the same compound?
A: The GLC was 185.4 mg/dL.

Q: And the IP (time 7 day)?
A: Its IP is 7.2 mg/dL.

Q: What about the K (time 7 day) of the same compound?
A: Its K is 4.2 meq/L.

Q: And the LDH (time 7 day)?
A: The LDH was 148.4 IU/L.

Q: And the Na (time 7 day)?
A: Its Na is 140.6 meq/L.

Q: And the PL (time 7 day)?
A: Its PL is 155.2 mg/dL.

Q: And the RALB (time 7 day)?
A: The RALB was 3.1 g/dL.

Q: What about the TBIL (time 7 day) of the same compound?
A: Its TBIL is 0.002 mg/dL.

Q: And the TC (time 7 day)?
A: The TC was 67.4 mg/dL.

Q: What about the TG (time 7 day) of the same compound?
A: Its TG is 200.6 mg/dL.

Q: And the TP (time 7 day)?
A: The TP was 5.7 g/dL.

Q: And the gamma-GTP (time 7 day)?
A: The gamma-GTP was 2 IU/L.

Q: And the A/G (time 14 day)?
A: Its A/G is 1.2.

Q: And the ALP (time 14 day)?
A: Its ALP is 1379.4 IU/L.

Q: What about the ALT (time 14 day) of the same compound?
A: The ALT was 44.8 IU/L.

Q: What about the AST (time 14 day) of the same compound?
A: Its AST is 72.8 IU/L.

Q: What about the BUN (time 14 day) of the same compound?
A: The BUN was 17.2 mg/dL.

Q: What about the CRE (time 14 day) of the same compound?
A: Its CRE is 0.2 mg/dL.

Q: What about the Ca (time 14 day) of the same compound?
A: The Ca was 10.3 mg/dL.

Q: What about the Cl (time 14 day) of the same compound?
A: Its Cl is 107.8 meq/L.

Q: What about the DBIL (time 14 day) of the same compound?
A: Its DBIL is 0 mg/dL.

Q: And the GLC (time 14 day)?
A: Its GLC is 183.8 mg/dL.

Q: What about the IP (time 14 day) of the same compound?
A: The IP was 6.5 mg/dL.

Q: What about the K (time 14 day) of the same compound?
A: Its K is 4.2 meq/L.

Q: What about the LDH (time 14 day) of the same compound?
A: The LDH was 144.4 IU/L.

Q: What about the Na (time 14 day) of the same compound?
A: The Na was 142.2 meq/L.

Q: And the PL (time 14 day)?
A: Its PL is 142.6 mg/dL.

Q: And the RALB (time 14 day)?
A: Its RALB is 3.1 g/dL.

Q: What about the TBIL (time 14 day) of the same compound?
A: Its TBIL is 0.006 mg/dL.

Q: And the TC (time 14 day)?
A: Its TC is 69.2 mg/dL.

Q: What about the TG (time 14 day) of the same compound?
A: The TG was 142.2 mg/dL.

Q: What about the TP (time 14 day) of the same compound?
A: The TP was 5.7 g/dL.

Q: What about the gamma-GTP (time 14 day) of the same compound?
A: Its gamma-GTP is 2 IU/L.

Q: What about the A/G (time 28 day) of the same compound?
A: The A/G was 1.1.

Q: What about the ALP (time 28 day) of the same compound?
A: Its ALP is 1170.6 IU/L.

Q: And the ALT (time 28 day)?
A: Its ALT is 46.8 IU/L.

Q: What about the AST (time 28 day) of the same compound?
A: Its AST is 66.6 IU/L.

Q: And the BUN (time 28 day)?
A: The BUN was 18.8 mg/dL.

Q: What about the CRE (time 28 day) of the same compound?
A: Its CRE is 0.2 mg/dL.

Q: And the Ca (time 28 day)?
A: The Ca was 10.5 mg/dL.

Q: And the Cl (time 28 day)?
A: The Cl was 105.8 meq/L.

Q: What about the DBIL (time 28 day) of the same compound?
A: Its DBIL is 0 mg/dL.

Q: And the GLC (time 28 day)?
A: The GLC was 192.8 mg/dL.

Q: What about the IP (time 28 day) of the same compound?
A: The IP was 6.5 mg/dL.

Q: What about the K (time 28 day) of the same compound?
A: Its K is 4.2 meq/L.

Q: And the LDH (time 28 day)?
A: Its LDH is 142 IU/L.

Q: What about the Na (time 28 day) of the same compound?
A: Its Na is 142 meq/L.

Q: What about the PL (time 28 day) of the same compound?
A: Its PL is 155.4 mg/dL.

Q: What about the RALB (time 28 day) of the same compound?
A: Its RALB is 3.1 g/dL.

Q: And the TBIL (time 28 day)?
A: The TBIL was 0.006 mg/dL.

Q: And the TC (time 28 day)?
A: Its TC is 73.2 mg/dL.

Q: What about the TG (time 28 day) of the same compound?
A: Its TG is 178 mg/dL.

Q: And the TP (time 28 day)?
A: The TP was 6 g/dL.

Q: What about the gamma-GTP (time 28 day) of the same compound?
A: Its gamma-GTP is 2.2 IU/L.
